# Assay results reported in patent publication US20140017302A1, “OPTIMISED PREPARATIONS OF HIGHLY ADAPTABLE AGGREGATES” (priority 2011, published 2014).
# Assays:
# [1] = Drug payload limit: terbinafine concentration at minimum vesicularisation time (FIG. 1 inset); format: physicochemical; details: for payload (concentration at minimum vesicularisation time): phosphatidylcholine vesicles + 5 wt.-% ethanol, azeleate buffer 0.05 M
# Excerpt: FIG. 1 is a schematic representation of experiments carried out to show an effect of buffer (ionic additive) selection on the vesicularisation time of reference (i.e. containing >90% pure soybean phosphatidylcholine) vesicles and of vesicles loaded with terbinafine as a function of the bulk pH. The results of an additional test series, in which an increasing amount of terbinafine was incorporated into phosphatidylcholine vesicles (at 10 wt-%-terbinafine concentration+5 wt.-% ethanol) dispersed in azeleate buffer (0.05 M) are shown in the Inset for pH=4.55±0.1 (diamonds) and pH=3.6±0.1 (down-arrow).
# [2] = cited from earlier work; for pK (first value): buffer/salt of Table 1
# [3] = Vesicularisation time: sonication of a crude suspension until opalescent/transparent, followed by turbidity; format: physicochemical
# Excerpt: The term aggregate “adaptability” is herein closely related to “deformability” and can be measured using previously described methods (e.g. Wachter et al., 2008, J. Drug Targeting 16: 611). In principle, most of these methods assess the penetration of a nanoporous, semipermeable barrier by the tested aggregates in a suspension, presuming no significant aggregate fragmentation during penetration. In an alternative method, the kinetics of aggregate fragmentation under greater external stress is studied, e.g., during ultrasonication. An aggregate is considered to have an ultradeformable bilayer for purposes of the invention if its adaptability is close to or at about the highest value achievable without an appreciable, and normally spontaneous, aggregate fragmentation into smaller structures, e.g. micelles.
# The term “vesicularisation time” refers to the time required to transform an originally opaque suspension (i.e. having an optical density >>3) to an opalescent/transparent suspension with a much lower optical density using external stress, e.g. generated with an ultrasound transducer, high-shear homogeniser (Ultra-Turrax®, IKA) or rotor-stator homogeniser. […]
# A first consideration is that the chosen pH is far enough from the tested aggregate surface pKa,mem to exclude ionisation changes during a test; otherwise, experiments must be conducted at two or more constant, yet different, pH values and then analysed together allowing for the pH effects. […]
# In a simpler and more qualitative alternative assay, one compares the test sample turbidity with an appropriate opalescent/transparent reference suspension turbidity. A series of readings taken for each representative sample at different times can likewise reveal temporal stability. Experimental data generated with this method confirmed the independency of the conclusions drawn from individual turbidity readouts for the preparations of the invention: within experimental error limits, the difference between the time required to generate more or less, but always similarly turbid suspension is generally the same. […]
# [4] = T=310 K, phospholipid plus drug ~10 w-%
SMILES,pK (first value) [2],pK1 ([2]; buffer of Table 4),pK2 ([2]; buffer of Table 4),other results
CN(C/C=C/C#CC(C)(C)C)Cc1cccc2ccccc12 [terbinafine],–,–,–,"payload limit (concentration at minimum vesicularisation time) ([1]; aggregate suspensions in phosphate buffer of comparable pH): < 10 wt.-%; higher payload in azeleate buffer compared with phosphate buffer ([1]; comparable pH): at least 50%; payload (concentration at minimum vesicularisation time) ([1]; pH=3.6): ~20%; payload (concentration at minimum vesicularisation time) ([1]; pH=4.55): ~15%; de/protonation constant in a membrane, pKa,mem [2, 4]: 5.5; de/protonation constant in the bulk, pK [2, 4]: 7.05; water-membrane partition ratio, ionised drug form, log Pmem^I [2, 4]: 3.78; water-membrane partition ratio, neutral drug form, log Pmem^N [2, 4]: 5.19; vesicularisation time ([3]; 10 wt.-% total amphipat including 20 rel-% terbinafine, phosphate buffer, pH~4.4): exceeds 200 s; sonication time (vesicularisation time) ([3]; terbinafine + phosphatidylcholine, 0.1 M phosphate buffer, pH=5.7, fails to produce small aggregates above the precipitate): exceeding 1400 s; time needed to prepare drug-loaded aggregates ([3]; terbinafine + phosphatidylcholine, phosphate buffer, pH=5.2): around 700 s"
Cc1ccc(S(=O)(=O)O)cc1 [p-Toluenesulfonic acid],0.7,–,–,–
OCCN1CCOCC1 [Morpholinoethanol],7.4,7.4,–,–
"[Na+].[OH-] [Sodium hydroxyde, NaCl, Sodium hydroxyde]",13.0,–,–,–
"O=C(c1ccccc1)c1ccc2n1CCC2C(=O)O (stereo not drawn) [ketorolac, reference compound]",–,–,–,"log Pmem^I ([2]; best estimates): ~0.8; log Pmem^N ([2]; best estimates): ~2.3; pK ([2]; best estimates): 3.5; pKa,mem ([2]; best estimates): ~5.5"
"OCCN1CCCC1 [1-Pyrrolidineethanol (epolamine), 1-Pyrrolidineethanol]",9.8,9.8,–,–
NCCCC[C@H](N)C(=O)O [Lysine],–,10.5,9.1,pK3 ([2]; buffer of Table 4): 2.2
"Cl [Hydrochloric acid, sodium, Hydrochloric acid]",−9.3,–,–,–
O=C(O)CN(CCO)CCO [Bicine],–,8.5,1.9,–
"O=C(O)CCCCCCCC(=O)O [azaleic acid, Azelaic acid]",–,–,–,log P [2]: > 1
c1c[nH]cn1 [Imidazole],6.9,14.5,6.9,–
O=S(=O)(O)CCN1CCN(CCS(=O)(=O)O)CC1 [PIPES],–,7.1,0.4,–
CC(=O)O [Acetic acid],4.8,–,–,–
"C[N+](C)(C)CCO.[Cl-] [Choline, chloride]",–,13.9,–,–
O=C(O)CNC(CO)(CO)CO [Tricine],–,8.2,2.3,–
OCCN(CCO)C(CO)(CO)CO [Bis-TRIS],–,6.5,–,–
O=S(=O)(O)CCN1CCN(CCO)CC1 [HEPES],–,7.6,1.7,–
"O=C1CC[C@@H](C(=O)O)N1 [Pyroglutamic acid (pidolic acid), Pyroglutamic acid]",3.5,–,–,–
CCNCC [Diethylamine],–,10.6,–,–
O=C(O)[C@H](O)[C@@H](O)[C@H](O)[C@H](O)CO [Gluconic acid],3.6,–,–,–
O=S(=O)(O)O [Sulphuric acid],–,−3,1.9,–
